In patent US7488822B2 (Wyeth, priority 1999, dated 2009):
Several values for one entry are separate records, joined by “and”; a condition that tells them apart may be missing. Equal values may be shown once. Blank lines part the entries; values can stand above or below the molecule they belong to.

How the values were obtained:
T47D cells = assay: T47D cell proliferation assay (BrdU incorporation); type: cell-based; conditions: half-maximal decrease in trimegestone induced BrdU incorporation, individual studies, read-out: Estimated IC50
Description: T47D cell proliferation assay • The objective of this assay is the determination of progestational and antiprogestational potency by using a cell proliferation assay in T47D cells. A compound's effect on DNA synthesis in T47D cells is measured. […] Growth medium: DMEM:F12 (1:1) (GIBCO, BRL) supplemented with 10% (v/v) fetal bovine serum (not heat-inactivated), 100 U/ml penicillin, […], and 2 mM GlutaMax (GIBCO, BRL). • b. Treatment medium: Minimum Essential Medium (MEM) (#51200-038GIBCO, BRL) phenol red-free supplemented with 0.5% charcoal stripped fetal bovine serum, 100 U/ml penicillin, […] streptomycin, and 2 mM GlutaMax (GIBCO, BRL). • c. Cell Culture • Stock T47 D cells are maintained in growth medium. For BrdU incorporation assay, cells are plated in 96-well plates (Falcon, Becton Dickinson Labware) at 10,000 cells/well in growth medium. […] Cell Proliferation Assay • At the end of BrdU labeling, the medium is removed and BrdU incorporation is measured using a cell proliferation ELISA kit (#RPN 250, Amersham Life Science) according to manufacturer's instructions. […] Then 25 μl of 1 M sulfuric acid is added to each well to stop color reaction and optical density is read in a plate reader at 450 nm within 5 min. • e. […] EC50 or IC50 values are calculated from the retransformed values. […]

[1] = test system: rat uterine decidualization; assay: Rat decidualization assay; type: in vivo; conditions: for Estimated average EC50 (mg/kg, s.c.): average for dose-response curves; for Estimated EC50 (mg/kg, s.c.): uterine wet weight; for Decidualization IC50: decrease in EC50 progesterone induced decidual response
Description: The animals are treated once daily for seven days. […] Uteri are removed and trimmed of fat.
Body weight: Mean total animal body weight (default-kg)
Decidual response: [(D-C)/C]×100%

- IC50 (T47D cells): 0.016 nM and 0.018 nM
- Estimated IC50 (mg/kg, p.o.) ([1]; p.o., EC50 dose of progesterone, individual studies): 0.21 mg/kg and 0.14 mg/kg
Structure (SMILES): CC#C[C@]1(O)CC[C@H]2[C@@H]3CCC4=CC(=O)CCC4=C3[C@@H](c3ccc(N(C)C)cc3)C[C@@]21C [RU486]

- Estimated average EC50 (mg/kg, s.c.) [1]: 0.10 mg/kg
- Estimated EC50 (mg/kg, s.c.) ([1]; individual studies): 0.10 mg/kg and 0.06 mg/kg and 0.11 mg/kg
Structure (SMILES): C#C[C@]1(O)CC[C@H]2[C@@H]3CCC4=CC(=O)CC[C@@H]4[C@H]3C(=C)C[C@@]21CC [3-Ketodesogestrel]

- Estimated EC50 (mg/kg, s.c.) ([1]; individual studies): 5.50 mg/kg
Structure (SMILES): CC(=O)[C@H]1CC[C@H]2[C@@H]3CCC4=CC(=O)CC[C@]4(C)[C@H]3CC[C@]12C [Progesterone]

Structure (SMILES): CC1(C)OC(=O)Nc2ccc(-c3coc(C#N)c3)cc21 [Compound 7, 4-(4,4-Dimethyl-2-oxo-1,4-dihydro-2H-benzo[d][1,3]oxazin-6-yl)-furan-2-carbonitrile]
- inhibition at 3 mg/kg ([1]; @ 3 mg/kg, read-out: Decidualization, percentage inhibition at the dose specified): 75%

- Decidualization IC50 [1]: 3 mg/kg
Structure (SMILES): N#Cc1cc(F)cc(-c2ccc3c(c2)C(C2CC2)(C2CC2)OC(=O)N3)c1 [Compound 15, 3-(4,4-Dicyclopropyl-2-oxo-1,4-dihydro-2H-benzo[d][1,3]oxazin-6-yl)-5-fluoro-benzonitrile]

- Estimated EC50 (mg/kg, s.c.) ([1]; individual studies): 0.42 mg/kg and 0.39 mg/kg (2×)
Structure (SMILES): CC(=O)O[C@]1(C(C)=O)CC[C@H]2[C@@H]3C[C@H](C)C4=CC(=O)CC[C@]4(C)[C@H]3CC[C@@]21C [MPA, medroxyprogesterone acetate]

- Decidualization IC50 [1]: 3 mg/kg
Structure (SMILES): CC1(C)OC(=O)Nc2ccc(-c3cccc(Br)c3)cc21 [Compound 13, 6-(3-Bromo-phenyl)-4,4-dimethyl-1,4-dihydro-benzo[d][1,3]-oxazin-2-one]

- Estimated average EC50 (mg/kg, s.c.) [1]: 0.10 mg/kg
Structure (SMILES): C#C[C@]1(O)CC[C@H]2[C@@H]3CCC4=CC(=O)CC[C@@H]4[C@H]3CC[C@@]21CC [Levonorgestrel]
- Estimated EC50 (mg/kg, s.c.) ([1]; individual studies): 0.08 mg/kg and 0.12 mg/kg and 0.09 mg/kg (2×)

- melting point: 258 to 260 °C
Structure (SMILES): CC1(C)OC(=O)Nc2ccc(-c3ccc(S(N)(=O)=O)s3)cc21 [Example 141, 5-(4,4Dimethyl-2-oxo-1,4-dihydro-2H-benzo[d][1,3]-oxazin-6-yl)-thiophene-2-sulfonamide]

Structure (SMILES): Cc1cc(C#N)sc1-c1ccc2c(c1)C1(CCCCC1)OC(=O)N2 [Compound 10, 5-(1,2-Dihydro-2-oxospiro[4H-3,1-benzoxazine-4,1-cyclohexan]-6-yl)-4-methyl-2-thiophenecabonitrile]
- Decidualization, percentage inhibition at the dose specified ([1]; @ 10 mg/kg): 50% @

- Decidualization IC50 [1]: 1 mg/kg
Structure (SMILES): CC1(C)OC(=O)Nc2ccc(-c3ccc(F)c(Cl)c3)cc21 [Compound 20, 6-(3-Chloro-4-fluoro-phenyl)-4,4-dimethyl-1,4-dihydro-benzo[d][1,3]oxazin-2-one]

- melting point: 272 to 275 °C
Structure (SMILES): CC1(C)OC(=O)Nc2ccc(-c3ccc(C#N)c(F)c3)cc21 [Example 114, 6-(4-Cyano-3-fluoro-phenyl)-4,4-dimethyl-1,4-dihydrobenzo[d][1,3]-oxazin-2-one]

- Decidualization IC50 [1]: 2.3 mg/kg
Structure (SMILES): CC1(C)OC(=O)Nc2ccc(-c3csc(C#N)c3)cc21 [Compound 17, 4-(4,4-Dimethyl-2-oxo-1,4-dihidro-2H-benzo[d][1,3]oxazin-6-yl)-thiophene-2-carbonitrile]

- Decidualization IC50 [1]: 1.5 mg/kg
Structure (SMILES): Cc1cc(C#N)sc1-c1ccc2c(c1)C(C)(C)OC(=O)N2 [Compound 18, 5-(4,4-Dimethyl-2-oxo-1,4-dihydro-2H-benzo[d][1,3]oxazin-6-yl)-4-methyl-thiophene-2-carbonitrile]

- Decidualization IC50 [1]: 0.35 mg/kg
Structure (SMILES): CC1(C)OC(=O)Nc2ccc(-c3cc(F)cc(C#N)c3)cc21 [Compound 19, 3-(4,4-Dimethyl-2-oxo-1,4-dihydro-2H-benzo[d][1,3]oxazin-6-yl)-5-fluorobenzonitrile]
